From patent US20260083865A1, “PROSTATE SPECIFIC MEMBRANE ANTIGEN (PSMA) LIGANDS AND USE THEREOF” (priority 2022, published 2026)
Read-outs that look alike come from different tables or passages of the source. Numbered stars: 1 amine (or outer) side, 2 acyl side, 3 side chain; on linkers, the order of the positions; unused ones are H or OH. Bridge positions count the residues as written; N and C are the ends. Square brackets hold non-standard residues; d marks the D form. Side chains are listed from the residue outwards. Peptide text beside a SMILES is read from it. * marks the point of attachment. TtdsdLys(DOTA)NH2 = NC(=O)[C@@H](CCCCNC(=O)CN1CCN(CC(=O)O)CCN(CC(=O)O)CCN(CC(=O)O)CC1)NC(=O)CCC(=O)NCCCOCCOCCOCCCN*; X7 = O=C(O)CN1CCN(CC(=O)O)CCN(CC(=O)NC2CCN(CC(=O)*)CC2)CCN(CC(=O)O)CC1; DOTA = O=C(O)CN1CCN(CC(=O)O)CCN(CC(=O)*)CCN(CC(=O)O)CC1; Phe(4-Cl) = N[C@@H](Cc1ccc(Cl)cc1)C(=O)O; 2Nal = N[C@@H](Cc1ccc2ccccc2c1)C(=O)O; Ethylenediamine = C(CN[*:2])N[*:1]; X1 = O=C(CC1CCN([*:1])CC1)[*:2]; Tle = CC(C)(C)[C@H](N)C(=O)O; 4Amb = NCc1ccc(C(=O)O)cc1; 4Abz = Nc1ccc(C(=O)O)cc1; Nle = CCCC[C@H](N)C(=O)O; Hexanoyl = CCCCCC(=O)*; Aib = CC(C)(N)C(=O)O; Guanidino = N=C(N)N*; Ahx = NCCCCCC(=O)O

Columns and labels:
[1] = molecular target: T1, PSMA-expressing C4-2 cells (Homo sapiens, UniProt Q04609); assay: FACS binding assay (competition with 50 nM PSM-0183); details: C4-2 cells, read-out: pIC50 [C4-2] CAT (converted)
T1 construct: PSMA-expressing C4-2 cells (ATCC, Cat. No. CRL-3314) were cultured in RPMI-1640; host or cells: C4-2 cells
Summary of the method: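 C4-2 cells were incubated 1 h at 4 °C with 50 nM AF488-labelled peptide PSM-0183 plus increasing test compound concentrations, then washed twice in ice-cold buffer. Median fluorescence in the AF488 channel was read by flow cytometry. IC50/pIC50 was derived by 4PL fitting of MFI versus concentration.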

[2] = molecular target: T2, Fc-fusion protein of human PSMA (hPSMA-Fc) (Homo sapiens, UniProt Q04609); assay: Surface plasmon resonance assay (Biacore T200, single cycle kinetic); format: binding; details: read-out: pKD CAT (converted)
T2 construct: purchased Acro Biosystems PSA-H5264
Summary of the method: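 hPSMA-Fc was captured (~1000 RU) on an Fc-binding-peptide CM5 chip, and compounds were run in single cycle kinetic mode at 25° C in HBST with 0.1% DMSO. Double-blank-corrected sensorgrams were fitted to a 1:1 Langmuir model to give KD, reported as pKD.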

[3] = FACS binding, competition with 50 nM PSM-0183, category
[4] = SPR, hPSMA-Fc, single cycle kinetic, 25° C., category
[5] = pKD category for PSMA SPR activity assay, hPSMA-Fc, 25° C.

T2 sequence (Q04609 44-750 limits assumed): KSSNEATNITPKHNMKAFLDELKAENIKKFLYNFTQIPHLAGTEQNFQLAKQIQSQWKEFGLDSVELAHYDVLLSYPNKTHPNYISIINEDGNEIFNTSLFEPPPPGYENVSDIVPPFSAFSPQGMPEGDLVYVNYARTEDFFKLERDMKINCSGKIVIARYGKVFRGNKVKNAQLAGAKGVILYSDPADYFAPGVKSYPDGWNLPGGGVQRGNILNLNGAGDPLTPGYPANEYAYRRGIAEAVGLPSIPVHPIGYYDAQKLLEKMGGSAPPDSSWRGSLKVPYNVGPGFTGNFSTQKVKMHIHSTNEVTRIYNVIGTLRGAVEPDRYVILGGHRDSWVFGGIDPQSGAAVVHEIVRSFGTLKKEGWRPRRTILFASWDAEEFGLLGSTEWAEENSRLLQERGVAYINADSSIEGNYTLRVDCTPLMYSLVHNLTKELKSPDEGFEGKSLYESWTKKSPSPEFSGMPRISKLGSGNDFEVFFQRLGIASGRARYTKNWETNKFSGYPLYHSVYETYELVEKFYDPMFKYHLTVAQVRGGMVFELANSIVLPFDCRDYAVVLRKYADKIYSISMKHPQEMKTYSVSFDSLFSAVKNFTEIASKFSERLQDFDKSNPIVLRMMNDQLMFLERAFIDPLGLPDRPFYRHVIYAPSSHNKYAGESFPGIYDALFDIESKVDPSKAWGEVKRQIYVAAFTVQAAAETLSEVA
T1 sequence (Q04609 whole entry): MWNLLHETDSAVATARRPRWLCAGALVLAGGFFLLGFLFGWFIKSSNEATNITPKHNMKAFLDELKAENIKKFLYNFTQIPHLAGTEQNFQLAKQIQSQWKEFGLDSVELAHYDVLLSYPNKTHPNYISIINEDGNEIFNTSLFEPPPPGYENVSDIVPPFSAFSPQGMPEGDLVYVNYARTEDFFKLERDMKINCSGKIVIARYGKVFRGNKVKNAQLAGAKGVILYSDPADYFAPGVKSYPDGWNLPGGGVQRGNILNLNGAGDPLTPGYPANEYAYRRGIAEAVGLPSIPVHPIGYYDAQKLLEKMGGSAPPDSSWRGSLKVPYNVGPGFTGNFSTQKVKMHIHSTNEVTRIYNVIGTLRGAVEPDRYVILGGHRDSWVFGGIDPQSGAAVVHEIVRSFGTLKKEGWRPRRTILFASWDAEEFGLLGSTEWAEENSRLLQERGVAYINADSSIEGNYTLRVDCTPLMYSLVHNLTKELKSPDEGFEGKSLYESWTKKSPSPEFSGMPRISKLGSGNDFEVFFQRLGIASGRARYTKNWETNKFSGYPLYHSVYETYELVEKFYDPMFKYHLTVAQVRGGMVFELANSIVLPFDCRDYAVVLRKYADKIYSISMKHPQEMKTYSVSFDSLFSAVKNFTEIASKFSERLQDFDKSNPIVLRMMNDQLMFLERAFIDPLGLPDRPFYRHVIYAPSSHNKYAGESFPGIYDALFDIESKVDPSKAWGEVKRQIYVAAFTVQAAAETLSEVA

SMILES | IC50 [1, 3] [nM] | Kd [2, 4] [nM] | IC50 ([1]; pIC50 category of FACS binding) [nM] | Kd [2, 5] [nM] | further results
CCCC[C@H](NC(=O)[C@@H]1CSSC[C@H](NC(=O)[C@H](Cc2ccccc2)NC(=O)[C@H](C)NC(=O)[C@@H](NC(C)=O)[C@@H](C)O)C(=O)N[C@@H](CCCCN)C(=O)N[C@@H](C)C(=O)N[C@@H](C)C(=O)N[C@@H](CC(N)=O)C(=O)N1)C(=O)N[C@H](C(=O)N[C@@H](CC(=O)O)C(N)=O)[C@@H](C)O [PSM-0581, Ac-Thr-Ala-Phe-[Cys-Lys-Ala-Ala-Asn-Cys]-Nle-Thr-Asp-NH2] (Ac-TAFCKAANC[Nle]TD-NH2; disulfide 4-9) |  |  |  |  | IC50 ([1]; FACS binding, category): 1260 to 3160 nM; Kd ([2]; PSMA SPR assay, category): > 501 nM
CC(=O)N[C@H](C(=O)NC(C)(C)C(=O)N[C@@H](Cc1ccccc1)C(=O)N[C@H]1CSSC[C@@H](C(=O)N[C@H](C(=O)N[C@H](C(N)=O)[C@@H](C)O)C(C)(C)C)NC(=O)[C@H](CC(N)=O)NC(=O)C(C)(C)NC(=O)[C@H](CCCNC(=N)N)NC(=O)[C@H](CCCCN)NC1=O)[C@@H](C)O [PSM-0178, Ac-Thr-Aib-Phe-[Cys-Lys-Arg-Aib-Asn-Cys]-Tle-Thr-NH2] (Ac-T[Aib]FCKR[Aib]NC[Tle]T-NH2; disulfide 4-9) | < 200 | < 12.6 |  |  | 
CC(=O)N[C@H](C(=O)NC(C)(C)C(=O)N[C@@H](Cc1ccc2ccccc2c1)C(=O)N[C@H]1CSSC[C@@H](C(=O)N[C@H](C(=O)N[C@H](C(=O)N[C@@H](CC(=O)O)C(N)=O)[C@@H](C)O)C(C)(C)C)NC(=O)[C@H](CC(N)=O)NC(=O)C(C)(C)NC(=O)[C@H](CCCNC(=N)N)NC(=O)[C@H](CCCCN)NC1=O)[C@@H](C)O [PSM-0517, Ac-Thr-Aib-2Ni-[Cys-Lys-Arg-Aib-Asn-Cys]-Tle-Thr-Asp-NH2] (Ac-T[Aib][2Nal]CKR[Aib]NC[Tle]TD-NH2; disulfide 4-9) |  |  | < 200 | < 12.6 | 
C[C@@H](O)[C@H](NC(=O)[C@@H](NC(=O)[C@@H]1CSSC[C@H](NC(=O)[C@H](Cc2ccccc2)NC(=O)C(C)(C)NC(=O)[C@@H](NC(=O)CC2CCN(C(=O)CN3CCN(CC(=O)O)CCN(CC(=O)O)CCN(CC(=O)O)CC3)CC2)C(C)(C)C)C(=O)N[C@@H](CCCCN)C(=O)N[C@@H](CCCNC(=N)N)C(=O)NC(C)(C)C(=O)N[C@@H](CC(N)=O)C(=O)N1)C(C)(C)C)C(N)=O [PSM-0198, DOTA-Cmp-Tle-Aib-Phe-[Cys-Lys-Arg-Aib-Asn-Cys]-Tle-Thr-NH2] ({DOTA}-[X1][Tle][Aib]FCKR[Aib]NC[Tle]T-NH2; disulfide 5-10) | 1260 to 3160 | 126 to 501 |  |  | 
CCCCCC(=O)N[C@H](C(=O)N[C@@H](C)C(=O)N[C@@H](Cc1ccccc1)C(=O)N[C@H]1CSSC[C@@H](C(=O)N[C@H](C(=O)N[C@H](C(=O)N[C@@H](CC(=O)O)C(=O)NCCCOCCOCCOCCCNC(=O)CCC(=O)N[C@H](CCCCNC(=O)CN2CCN(CC(=O)O)CCN(CC(=O)O)CCN(CC(=O)O)CC2)C(N)=O)[C@@H](C)O)C(C)(C)C)NC(=O)[C@H](CC(N)=O)NC(=O)[C@H](C)NC(=O)[C@H](CCCNC(=N)N)NC(=O)[C@H](CCCCN)NC1=O)[C@@H](C)O [PSM-0568, Hex-Thr-Ala-Phe-[Cys-Lys-Arg-Ala-Asn-Cys]-Tle-Thr-Asp-Ttds-lys(DOTA)-NH2] (Hexanoyl-TAFCKRANC[Tle]TD-{TtdsdLys(DOTA)NH2}; disulfide 4-9) |  |  |  |  | IC50 ([1]; FACS binding, category): < 200 nM; Kd ([2]; PSMA SPR assay, category): 12.6 to 126 nM
CC(=O)N[C@H](C(=O)NC(C)(C)C(=O)N[C@@H](Cc1ccc(Cl)cc1)C(=O)N[C@H]1CSSC[C@@H](C(=O)N[C@H](C(=O)N[C@H](C(N)=O)[C@@H](C)O)C(C)(C)C)NC(=O)[C@H](CC(C)C)NC(=O)C(C)(C)NC(=O)[C@H](CCCNC(=N)N)NC(=O)[C@H](CCCCN)NC1=O)[C@@H](C)O [PSM-0584, Ac-Thr-Aib-Pcf-[Cys-Lys-Cit-Aib-Leu-Cys]-Tle-Thr-NH2] (Ac-T[Aib][Phe(4-Cl)]CKR[Aib]LC[Tle]T-NH2; disulfide 4-9) |  |  |  |  | IC50 ([1]; FACS binding, category): < 200 nM; Kd ([2]; PSMA SPR assay, category): < 12.6 nM
C[C@@H](O)[C@H](NC(=O)[C@@H](NC(=O)[C@@H]1CSSC[C@H](NC(=O)[C@H](Cc2ccccc2)NC(=O)C(C)(C)NC(=O)[C@@H](NC(=O)CCCCCNC(=O)CN2CCN(CC(=O)O)CCN(CC(=O)O)CCN(CC(=O)O)CC2)[C@@H](C)O)C(=O)N[C@@H](CCCCN)C(=O)N[C@@H](CCCNC(=N)N)C(=O)NC(C)(C)C(=O)N[C@@H](CC(N)=O)C(=O)N1)C(C)(C)C)C(N)=O [PSM-0368, DOTA-Ahx-Thr-Aib-Phe-[Cys-Lys-Arg-Aib-Ass-Cys]-Tle-Thr-NH2] ({DOTA-Ahx}-T[Aib]FCKR[Aib]NC[Tle]T-NH2; disulfide 4-9) |  |  | < 200 | < 12.6 | 
C[C@@H](O)[C@H](NC(=O)[C@@H](NC(=O)[C@@H]1CSSC[C@H](NC(=O)[C@H](Cc2ccc(Cl)cc2)NC(=O)C(C)(C)NC(=O)CC2CCN(C(=O)CN3CCN(CC(=O)O)CCN(CC(=O)O)CCN(CC(=O)O)CC3)CC2)C(=O)N[C@@H](CCCCN)C(=O)N[C@@H](CCC(=O)NC(=N)N)C(=O)NC(C)(C)C(=O)N[C@@H](CC(N)=O)C(=O)N1)C(C)(C)C)C(N)=O [PSM-0489, DOTA-Cmp-Aib-Pcf-[Cys-Lys-Gin (Gu)-Aib-Asn-Cys]-Tle-Thr-NH2] ({DOTA}-[X1][Aib][Phe(4-Cl)]CKE(Guanidino)[Aib]NC[Tle]T-NH2; disulfide 4-9) |  |  | < 200 | < 12.6 | 
CC(=O)N[C@H](C(=O)NC(C)(C)C(=O)N[C@@H](Cc1ccccc1)C(=O)N[C@H]1CSSC[C@@H](C(=O)N[C@H](C(=O)N[C@H](C(N)=O)[C@@H](C)O)C(C)(C)C)NC(=O)[C@H](CC(N)=O)NC(=O)[C@H](CCCCNC(=O)CN2CCC(NC(=O)CN3CCN(CC(=O)O)CCN(CC(=O)O)CCN(CC(=O)O)CC3)CC2)NC(=O)[C@H](CCCNC(=N)N)NC(=O)[C@H](CCCCN)NC1=O)[C@@H](C)O [PSM-0464, Ac-Thr-Aib-Phe-[Cys-Lys-Arg-Lys(DOTA-APAc)-Asn-Cys]-Tle-Thr-NH2] (Ac-T[Aib]FCKRK(X7)NC[Tle]T-NH2; disulfide 4-9) |  |  | < 200 | < 12.6 | 
CC(=O)N[C@H](C(=O)NC(C)(C)C(=O)N[C@@H](Cc1ccccc1)C(=O)N[C@H]1CSSC[C@@H](C(=O)N[C@H](C(=O)N[C@H](C(=O)N[C@@H](CC(=O)O)C(=O)NCCCOCCOCCOCCCNC(=O)CCC(=O)N[C@H](CCCCNC(=O)CN2CCN(CC(=O)O)CCN(CC(=O)O)CCN(CC(=O)O)CC2)C(N)=O)[C@@H](C)O)C(C)(C)C)NC(=O)[C@H](CC(N)=O)NC(=O)C(C)(C)NC(=O)[C@H](CCCNC(=N)N)NC(=O)[C@H](CCCCN)NC1=O)[C@@H](C)O [PSM-0212, Ac-Thr-Aib-Phe-[Cys-Lys-Arg-Aib-Asn-Cys]-Tle-Thr-Asp-Ttds-lys(DOTA)-NH2] (Ac-T[Aib]FCKR[Aib]NC[Tle]TD-{TtdsdLys(DOTA)NH2}; disulfide 4-9) | < 200 | < 12.6 |  |  | 
CC(=O)N[C@H](C(=O)NC(C)(C)C(=O)N[C@@H](Cc1ccccc1)C(=O)N[C@H]1CSSC[C@@H](C(=O)N[C@H](C(=O)N[C@H](C(N)=O)[C@@H](C)O)C(C)(C)C)NC(=O)[C@H](Cc2c[nH]c3ccccc23)NC(=O)C(C)(C)NC(=O)[C@H](CCCNC(=N)N)NC(=O)[C@H](CCCCN)NC1=O)[C@@H](C)O [PSM-0589, Ac-Thr-Aib-Phe-[Cys-Lys-Arg-Aib-Trp-Cys]-Tle-Thr-NH2] (Ac-T[Aib]FCKR[Aib]WC[Tle]T-NH2; disulfide 4-9) |  |  |  |  | IC50 ([1]; FACS binding, category): < 200 nM; Kd ([2]; PSMA SPR assay, category): < 12.6 nM
CC(=O)N[C@H](C(=O)NC(C)(C)C(=O)N[C@@H](Cc1ccccc1)C(=O)N[C@H]1CSSC[C@@H](C(=O)N[C@H](C(=O)N[C@H](C(N)=O)[C@@H](C)O)C(C)(C)C)NC(=O)[C@H](CC(N)=O)NC(=O)[C@H](CCCCNC(=O)c2ccc(NC(=O)CN3CCN(CC(=O)O)CCN(CC(=O)O)CCN(CC(=O)O)CC3)cc2)NC(=O)[C@H](CCCNC(=N)N)NC(=O)[C@H](CCCCN)NC1=O)[C@@H](C)O [PSM-0211, Ac-Thr-Aib-Phe-[Cys-Lys-Arg-Lys(DOTA-Pab)-Asn-Cys]-Tle-Thr-NH2] (Ac-T[Aib]FCKRK([4Abz-DOTA])NC[Tle]T-NH2; disulfide 4-9) | < 200 | < 12.6 |  |  | 
CC(=O)N[C@H](C(=O)NC(C)(C)C(=O)N[C@@H](Cc1ccc(O)cc1)C(=O)N[C@H]1CSSC[C@@H](C(=O)N[C@H](C(=O)N[C@H](C(=O)N[C@@H](CC(=O)O)C(N)=O)[C@@H](C)O)C(C)(C)C)NC(=O)[C@H](CC(N)=O)NC(=O)C(C)(C)NC(=O)[C@H](CCCNC(=N)N)NC(=O)[C@H](CCCCN)NC1=O)[C@@H](C)O [PSM-0488, Ac-Thr-Aib-Tyr-[Cys-Lys-Arg-Aib-Asn-Cys]-Tle-Thr-Asp-NH2] (Ac-T[Aib]YCKR[Aib]NC[Tle]TD-NH2; disulfide 4-9) |  |  | < 200 | 12.6 to 126 | 
CC(C)(NC(=O)c1ccc(CNC(=O)CN2CCN(CC(=O)O)CCN(CC(=O)O)CCN(CC(=O)O)CC2)cc1)C(=O)N[C@@H](Cc1ccccc1)C(=O)N[C@H]1CSSC[C@@H](C(=O)N[C@H](C(=O)NCCN)C(C)(C)C)NC(=O)[C@H](CC(N)=O)NC(=O)C(C)(C)NC(=O)[C@H](CCCNC(=N)N)NC(=O)[C@H](CCCCN)NC1=O [PSM-0221, DOTA-Pamb-Aib-Phe-[Cys-Lys-Arg-Aib-Asn-Cys]-Tle-en] ({DOTA-4Amb}-[Aib]FCKR[Aib]NC[Tle]-Ethylenediamine; disulfide 3-8) | < 200 | < 12.6 |  |  | 
